Reference: US11382904B2, “Therapeutic drug for diseases related to endoplasmic reticulum cell death in corneal endothelium” (KYOTO PREFECTURAL PUBLIC UNIVERSITY CORPORATION, priority 2013, dated 2022)
“Also recorded” adds a separate entry of the source.

Legend:
[1] = test system: corneal endothelial cells with Fuchs' endothelial corneal dystrophy (iFECD); assay: Annexin V positive apoptosis cells by flow cytometry, iFECD; format: cell-based, human; conditions: for TGFβ2-induced increase of annexin V positive apoptotic cells, effect of inhibitor: TGFβ2 plus inhibitor, 24 hours
Description: (§1) The human corneal endothelial cells (iHCEC) or corneal endothelial cells with Fuchs' endothelial corneal dystrophy (iFECD) prepared in the Preparation Examples were seeded on a culture dish coated with FNC Coating Mix and culture for about 3 days until reaching sub-confluence under the condition of 5% CO2 at 37° C. Furthermore, TGFβ2 and SB431542 were added and the cells were incubated for 24 hours under the condition of 5% CO2 at 37° C. Cells were peeled off with ACCUMAX. Annexin V or PI positive cells were measured by using Annexin V and PI and a flow cytometer (FACS Aria II (BD Biosciences, Franklin Lakes, N.J.)) with MEBCYTO Apoptosis Kit (Annexin V-FITC Kit) 100 test (4700, MEDICAL & BIOLOGICAL LABORATORIES).
The human corneal endothelial cells (iHCEC) or corneal endothelial cells with Fuchs' endothelial corneal dystrophy (iFECD) prepared in the Preparation Examples were seeded on a culture dish coated with FNC Coating Mix and culture for about 3 days until reaching sub-confluence under the condition of 5% CO2 at 37° C. Furthermore, TGFβ2, SB431542 and TGFβ signal inhibitor A-83-01 (Wako, Osaka; catalog No: 018-22521), ALK5 inhibitor (Wako catalog No: 012-23021; CAS No. 446859-33-2; 2-(3-(6-methylpyridine-2-yl)-1H-pyrazole-4-yl)-1,5-naphthyridine) were added and the cells were incubated for 24 hours under the condition of 5% CO2 at 37° C. The cells were peeled off with ACCUMAX. Annexin V or PI positive cells were measured by using annexin V and propidium iodide (PI) with a flow cytometer (FACS Aria II (BD Biosciences, Franklin Lakes, N.J.)).

[2] = test system: corneal endothelial cells with Fuchs' endothelial corneal dystrophy (iFECD); format: cell-based, human
Description: The human corneal endothelial cells (iHCEC) or corneal endothelial cells with Fuchs' endothelial corneal dystrophy (iFECD) prepared in the Preparation Examples were seeded on a culture dish coated with FNC Coating Mix and cultured for about 3 days until reaching sub-confluence under the condition of 5% CO2 at 37° C. Furthermore, TGFβ2, SB431542 and TG were added and the cells were incubated for 24 hours under the condition of 5% CO2 at 37° C. Cell morphology and apoptosis were then observed under a phase difference microscope.

[3] = test system: iHCEC; assay: Western blot of apoptosis associated proteins after staurosporine stimulation; format: cell-based, human; conditions: 15 minutes to 4 hours after staurosporine stimulation
Description: Caspase 9, caspase 3 and poly(ADP-ribose) polymerase (PARP) were assessed by Western blot in iHCEC stimulated with a mitochondrial stress stimulant staurosporine (abcam, ab120056) in order to assess the involvement of mitochondrial failure in apoptosis.
A stimulation was applied with staurosporine to induce a mitochondrial disorder to examine the chronological change.
Western blot was performed in accordance with the descriptions in Example 2. The following antibodies were used in addition to those used in Example 2.

[4] = test system: human corneal endothelial cells (iHCEC); assay: Annexin V positive apoptosis cells by flow cytometry, iHCEC; format: cell-based; conditions: after TGFβ stimulation (11.1±0.6% before stimulation)
Description: Further, it is known as the knowledge of the inventors that PERK phosphorylation and ATF6 cleavage were increased more in iFECD than in iHCEC by TGFβ. In order to investigate the involvement of TGFβ signaling in apoptosis, cells were treated with TGFβ and annexin V positive apoptosis cells were assessed by flow cytometry. […] Meanwhile, it is known that TGFβ increases annexin V positive cells after a stimulation in iFECD relative to the number prior to a TGFβ stimulation (as exemplary data, 19.4±1.4% prior to stimulation and 29.9±1.5% after stimulation, p<0.01). In addition thereto, it is shown that expression of the chaperone GRP78 is elevated. Further, it is shown that the expression of CHOP is elevated and apoptosis is induced by ER stress. […]
as §1, with “Furthermore, TGFβ2 and SB431542 were added and the cells were incubated for 24 hours under the condition of 5% CO2 at 37° C. Cells were peeled off with ACCUMAX.” left out

[5] = test system: corneal endothelial cells with Fuchs' endothelial corneal dystrophy (iFECD); assay: Aggresome measurement by flow cytometry (ProteoStat Aggresome Detection Kit); format: cell-based, human; conditions: TGFβ2 10 ng/ml, 24 hours
Description: 1×10^5 human corneal endothelial cells (iHCEC) or corneal endothelial cells with Fuchs' endothelial corneal dystrophy (iFECD) were seeded onto a 6 well plate coated with an FNC Coating Mix and cultured for about 2 days until reaching sub-confluence under the condition of 5% CO2 at 37° C. Furthermore, TGFβ2 (10 ng/ml; R&D SYSTEMS) was added and the cells were incubated for 24 hours under the condition of 5% CO2 at 37° C. The cells were then peeled off with ACCUMAX™ (Funakoshi), and aggresomes were measured with a flow cytometer (FACS Aria II (BD Biosciences, Franklin Lakes, N.J.) by using a ProteoStat® Aggresome Detection Kit: (EZN-51035-K100, Enabling Discovery in Life Science®).

[6] = test system: iHCEC and iFECD; assay: Western blot of ER stress markers after TGFβ2 stimulation; format: cell-based, human
Description: Western blot: Electrophoresis was applied to a protein extracted and obtained in a RIPA buffer with 7.5% polyacrylamide. The isolated protein was transferred onto a PVDF membrane (PALL LIFE SCIENCE (catalog number: EH-2222)). A Tris buffered saline (10 mM Tris-HCl, pH 7.4; 100 mM NaCl) (TBS-T) comprising 0.1% (vol/vol) polyethylene sorbitan monolaurate (Nacalai Tesque, catalog number: 28353-85) complemented with 5% NON FAT DRY MILK (CELL SIGNALING, catalog number: 9999) and a blotted membrane were incubated for 1 hour for a blocking operation. The membrane was immersed in anti-GRP78 antibodies diluted 1000 fold with TBS-T complemented with 5% NON FAT DRY MILK and reacted for 1 hour at room temperature. After washing three times with TBS-T and incubating with a mouse-IgG antibody HRP complex (CELL SIGNALING (catalog number: 7074P2)) and washing, a band illuminated with an ECL-ADVAVCE Western Blotting Detection Kit (GE Healthcare Japan (catalog number: RPN2135V)) was detected.
Cells were stimulated for 24 hours with 10 ng/ml TGFβ2 (R&D SYSTEMS). Further, cells stimulated for 24 hours with 10 μM of thapsigargin (TG; Alomone Laboratories Ltd., Jerusalem, Israel) were used as a positive control of ER stress.
Cells were stimulated with 10 ng/ml TGFβ2 (R&D SYSTEMS). Further, cells stimulated with thapsigargin (TG; Alomone Laboratories Ltd., Jerusalem, Israel) were used as a positive control of ER stress.
In the present Example, a Western blot was performed as in Example 2 to investigate the expression of the molecular chaperone GRP78 and CHOP involved with apoptosis due to an ER stress response in order to confirm that a stronger ER stress is elicited by TGF-β in Fuchs' endothelial corneal dystrophy. Further, expression of phosphorylated PERK and ATF6 involved in stress signaling on an endoplasmic reticulum membrane was also examined therewith. A stimulation was applied with 10 ng/ml of TGFβ2 (R&D SYSTEMS). The chronological change was also examined therewith.

[7] = 10 ng/ml TGFβ2, 3 and 6 hours, more significant in iFECD than iHCEC

Cc1cccc(-c2nn(C(=S)Nc3ccccc3)cc2-c2ccnc3ccccc23)n1 [A-83-01, 3-(6-methyl-2-pyridinyl)-N-phenyl-4-(4-quinolinyl)-1H-pyrazole-1-carbothioamide]
TGFβ2-induced increase of annexin V positive apoptotic cells, effect of inhibitor [1]: suppress apoptotic cells

Cc1cccc(-c2n[nH]cc2-c2ccc3ncccc3n2)n1 [ALK5 inhibitor, 2-(3-(6-methylpyridine-2-yl)-1H-pyrazole-4-yl)-1,5-naphthyridine]
TGFβ2-induced increase of annexin V positive apoptotic cells, effect of inhibitor [1]: suppress apoptotic cells

NC(=O)c1ccc(-c2nc(-c3ccc4c(c3)OCO4)c(-c3ccccn3)[nH]2)cc1 [SB431542, 4-[4-(1,3-benzodioxole-5-yl)-5-(2-pyridinyl)-1H-imidazole-2-yl]benzamide]
TGFβ2-induced increase of annexin V positive apoptotic cells, effect of inhibitor [1]: cancelled; also recorded: suppresses apoptosis | floating cells induced by TG (thapsigargin), effect of inhibitor ([2]; iFECD, TG stimulation, 24 hours): not cancelled | floating cells (cell damage) induced by TGFβ2, effect of inhibitor ([2]; iFECD, TGFβ2 stimulation, 24 hours): cancelled

C/C=C(/C)C(=O)O[C@H]1C(C)=C2[C@H]([C@@H]1OC(=O)CCCCCCC)[C@@](C)(OC(C)=O)C[C@H](OC(=O)CCC)[C@@]1(O)[C@H]2OC(=O)[C@@]1(C)O [TG, thapsigargin]
cell damage / floating cells caused by the stimulant [2]: large amount of floating cells

CN[C@@H]1C[C@H]2O[C@@](C)([C@@H]1OC)n1c3ccccc3c3c4c(c5c6ccccc6n2c5c31)C(=O)NC4 [staurosporine]
activation of caspase 9, caspase 3 and PARP [3]: activate

TGFβ2: transforming growth factor-β2 (R&D SYSTEMS) used to stimulate cells at 10 ng/ml
percentage of annexin V positive apoptosis cells after stimulation [4]: 12.3±0.5% | percentage of annexin V positive apoptosis cells after stimulation ([1]; after TGFβ stimulation (19.4±1.4% prior to stimulation), p<0.01): 29.9±1.5% | increase of aggresomes (fluorescence intensity) [5]: 1.11 fold | cell damage / floating cells caused by the stimulant [2]: damaged | expression of CHOP ([6]; 10 ng/ml TGFβ2, 3 and 6 hours): increases | expression of the chaperone GRP78 ([6]; 10 ng/ml TGFβ2, 3 and 6 hours): increases | expression of ATF6 [6, 7]: promotes expression | phosphorylation of PERK (ER stress sensor) [6, 7]: promotes phosphorylation | expression of chaperone GRP78 and stress sensor IRE1 ([6]; 10 ng/ml TGFβ2, iFECD and normal cells, level high especially in iFECD): induced
